Reference: ChEMBL document CHEMBL1201862, “PubChem BioAssay data set” (2004)
Calls of active or inactive are those of the source.

Key:
Coagulation factor XII = molecular target: T1, Coagulation factor XII (Homo sapiens, UniProt P00748); format: functional;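 further: activated factor XIIa alpha cleaving a fluorogenic AMC peptide substrate; inhibitor potency from loss of enzyme activity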
T1 sequence (P00748 whole entry): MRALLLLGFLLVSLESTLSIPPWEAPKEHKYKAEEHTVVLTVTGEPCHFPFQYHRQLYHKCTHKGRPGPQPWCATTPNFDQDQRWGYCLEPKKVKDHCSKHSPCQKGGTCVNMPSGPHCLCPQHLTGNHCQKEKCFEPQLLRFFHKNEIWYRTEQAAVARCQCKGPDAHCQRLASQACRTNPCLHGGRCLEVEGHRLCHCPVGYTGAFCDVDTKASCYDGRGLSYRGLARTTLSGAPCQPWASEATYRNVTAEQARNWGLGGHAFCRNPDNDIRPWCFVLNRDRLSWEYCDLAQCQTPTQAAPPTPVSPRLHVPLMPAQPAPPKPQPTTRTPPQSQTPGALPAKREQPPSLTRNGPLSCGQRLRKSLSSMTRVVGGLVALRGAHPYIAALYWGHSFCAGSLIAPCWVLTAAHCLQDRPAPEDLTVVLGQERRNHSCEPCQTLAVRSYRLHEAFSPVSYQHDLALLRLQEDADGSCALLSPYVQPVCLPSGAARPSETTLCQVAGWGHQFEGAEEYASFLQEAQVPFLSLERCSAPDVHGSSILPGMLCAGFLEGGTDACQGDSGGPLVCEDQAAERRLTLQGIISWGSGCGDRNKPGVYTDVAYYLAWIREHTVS

HEK293 [1] = assay: NOD2 signaling inhibitors in MDP-stimulated cells, cell-based, uHTS, luminescence (AID 2001); format: functional; details: Homo sapiens
HEK293 [2] = assay: cells; format: functional, cell-based; details: Homo sapiens
HEK293 [3] = assay: NOD1 signaling inhibitors, primary screen, cell-based, luminescence, uHTS (AID 1578); format: functional; details: Homo sapiens
HEK293 [4] = assay: cells; format: functional, cell-based; details: Homo sapiens; remark: listed apart in the source
[5] = molecular target: Nucleotide-binding oligomerization domain-containing protein 2 (Homo sapiens, UniProt Q9HC29); assay: NOD2 signaling inhibitors, cell-based, luminescence, uHTS, HEK293 (AID 1566); format: functional
Nucleotide-binding oligomerization domain-containing protein 2, sequence (Q9HC29 whole entry, the tested form may be a part): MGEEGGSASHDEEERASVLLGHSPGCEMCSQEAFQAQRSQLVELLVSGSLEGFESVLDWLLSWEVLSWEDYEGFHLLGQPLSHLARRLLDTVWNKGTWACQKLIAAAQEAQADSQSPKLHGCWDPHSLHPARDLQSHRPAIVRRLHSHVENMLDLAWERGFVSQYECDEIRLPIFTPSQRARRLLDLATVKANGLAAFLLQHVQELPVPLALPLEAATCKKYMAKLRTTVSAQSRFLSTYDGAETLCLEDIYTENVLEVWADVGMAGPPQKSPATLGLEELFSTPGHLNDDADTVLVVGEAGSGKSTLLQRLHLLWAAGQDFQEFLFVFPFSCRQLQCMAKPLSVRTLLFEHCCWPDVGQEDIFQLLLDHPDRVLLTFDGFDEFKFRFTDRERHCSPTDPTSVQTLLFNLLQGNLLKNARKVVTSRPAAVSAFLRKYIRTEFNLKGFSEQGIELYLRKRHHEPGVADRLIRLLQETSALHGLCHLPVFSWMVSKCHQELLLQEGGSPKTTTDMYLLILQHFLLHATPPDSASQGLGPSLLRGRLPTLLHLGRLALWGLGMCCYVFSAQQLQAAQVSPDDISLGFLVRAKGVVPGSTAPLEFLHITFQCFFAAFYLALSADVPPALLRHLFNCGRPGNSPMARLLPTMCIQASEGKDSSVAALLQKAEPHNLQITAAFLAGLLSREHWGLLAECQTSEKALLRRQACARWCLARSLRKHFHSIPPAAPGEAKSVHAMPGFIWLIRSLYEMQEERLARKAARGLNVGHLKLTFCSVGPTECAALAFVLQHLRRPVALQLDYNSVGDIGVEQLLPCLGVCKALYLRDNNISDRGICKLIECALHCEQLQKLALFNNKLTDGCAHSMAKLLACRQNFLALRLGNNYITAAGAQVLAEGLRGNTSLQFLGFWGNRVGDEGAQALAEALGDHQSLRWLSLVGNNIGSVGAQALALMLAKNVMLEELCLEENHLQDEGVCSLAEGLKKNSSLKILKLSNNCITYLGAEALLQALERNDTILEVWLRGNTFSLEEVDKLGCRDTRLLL

HEK293 [6] = assay: cells; format: functional, cell-based; details: Homo sapiens; remark: listed apart in the source
[7] = Luminescence Cell-Based Dose Response HTS to Identify Activators of Luciferase Translation or Activity in H4 […] Cells. [Related pubchem assays: 1829 (Project Summary), 1814 (Primary HTS)]; format: functional
[8] = THP-1 cell cytotoxicity, dose response, cytotoxicity control for non-replicating M. tuberculosis project (AID 489025); format: functional
[9] = HepG2 cell cytotoxicity, dose response, cytotoxicity control for non-replicating M. tuberculosis project (AID 489018); format: functional; details: Mycobacterium tuberculosis
[10] = Luminescence Cell-Based Dose Confirmation HTS to Identify Activators of 5'UTR Stem-Loop Driven Alpha-Synuclein mRNA Translation in H4 Neuroglioblastoma Cells. [Related pubchem assays: 1829 (Project Summary), 1814 (Primary HTS)]; format: functional
[11] = Vero E6 cell cytotoxicity, dose response, cytotoxicity control for non-replicating M. tuberculosis project, secondary assay (AID 492998); format: functional, VeroE6; details: Vero C1008
Leucine aminopeptidase = molecular target: T2, Leucine aminopeptidase (Plasmodium falciparum 3D7, UniProt Q8IL11); assay: P. falciparum M17LAP inhibitors, primary screen, biochemical, fluorogenic H-Leu-NHMec substrate, 1536-well (AID 1619); format: functional
T2 sequence (Q8IL11 whole entry): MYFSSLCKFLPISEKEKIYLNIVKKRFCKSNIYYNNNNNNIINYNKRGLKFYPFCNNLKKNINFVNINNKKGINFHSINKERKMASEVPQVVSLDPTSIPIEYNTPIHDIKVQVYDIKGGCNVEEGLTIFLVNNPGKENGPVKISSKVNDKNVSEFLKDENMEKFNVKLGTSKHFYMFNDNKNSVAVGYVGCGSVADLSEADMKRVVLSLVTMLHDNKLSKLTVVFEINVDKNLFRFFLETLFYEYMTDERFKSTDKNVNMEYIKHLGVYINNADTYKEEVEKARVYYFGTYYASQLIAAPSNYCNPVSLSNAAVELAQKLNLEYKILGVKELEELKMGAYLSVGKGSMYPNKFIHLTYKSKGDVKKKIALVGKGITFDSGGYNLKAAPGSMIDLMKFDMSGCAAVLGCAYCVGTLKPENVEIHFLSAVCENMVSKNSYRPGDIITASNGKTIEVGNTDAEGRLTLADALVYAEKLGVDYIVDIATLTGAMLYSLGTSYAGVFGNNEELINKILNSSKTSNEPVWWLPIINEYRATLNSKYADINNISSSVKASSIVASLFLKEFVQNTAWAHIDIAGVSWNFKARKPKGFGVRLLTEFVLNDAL

H4 = assay: Luminescence Cell-Based Dose Response HTS to Identify Activators of 5'UTR Stem-Loop Driven Prion Protein mRNA Translation in H4 Neuroglioblastoma Cells. [Related pubchem assays: 1829 (Project Summary), 1814 (Primary HTS)]; format: functional; details: Homo sapiens
[12] = molecular target: Heat shock protein HSP 90-alpha (Homo sapiens, UniProt P07900); format: functional, organism-based
[13] = molecular target: Voltage-dependent T-type calcium channel subunit alpha-1H (Homo sapiens, UniProt O95180); format: functional;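 further: channel activity triggered by adding a high calcium stimulation buffer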
Voltage-dependent T-type calcium channel subunit alpha-1H, sequence (O95180 whole entry): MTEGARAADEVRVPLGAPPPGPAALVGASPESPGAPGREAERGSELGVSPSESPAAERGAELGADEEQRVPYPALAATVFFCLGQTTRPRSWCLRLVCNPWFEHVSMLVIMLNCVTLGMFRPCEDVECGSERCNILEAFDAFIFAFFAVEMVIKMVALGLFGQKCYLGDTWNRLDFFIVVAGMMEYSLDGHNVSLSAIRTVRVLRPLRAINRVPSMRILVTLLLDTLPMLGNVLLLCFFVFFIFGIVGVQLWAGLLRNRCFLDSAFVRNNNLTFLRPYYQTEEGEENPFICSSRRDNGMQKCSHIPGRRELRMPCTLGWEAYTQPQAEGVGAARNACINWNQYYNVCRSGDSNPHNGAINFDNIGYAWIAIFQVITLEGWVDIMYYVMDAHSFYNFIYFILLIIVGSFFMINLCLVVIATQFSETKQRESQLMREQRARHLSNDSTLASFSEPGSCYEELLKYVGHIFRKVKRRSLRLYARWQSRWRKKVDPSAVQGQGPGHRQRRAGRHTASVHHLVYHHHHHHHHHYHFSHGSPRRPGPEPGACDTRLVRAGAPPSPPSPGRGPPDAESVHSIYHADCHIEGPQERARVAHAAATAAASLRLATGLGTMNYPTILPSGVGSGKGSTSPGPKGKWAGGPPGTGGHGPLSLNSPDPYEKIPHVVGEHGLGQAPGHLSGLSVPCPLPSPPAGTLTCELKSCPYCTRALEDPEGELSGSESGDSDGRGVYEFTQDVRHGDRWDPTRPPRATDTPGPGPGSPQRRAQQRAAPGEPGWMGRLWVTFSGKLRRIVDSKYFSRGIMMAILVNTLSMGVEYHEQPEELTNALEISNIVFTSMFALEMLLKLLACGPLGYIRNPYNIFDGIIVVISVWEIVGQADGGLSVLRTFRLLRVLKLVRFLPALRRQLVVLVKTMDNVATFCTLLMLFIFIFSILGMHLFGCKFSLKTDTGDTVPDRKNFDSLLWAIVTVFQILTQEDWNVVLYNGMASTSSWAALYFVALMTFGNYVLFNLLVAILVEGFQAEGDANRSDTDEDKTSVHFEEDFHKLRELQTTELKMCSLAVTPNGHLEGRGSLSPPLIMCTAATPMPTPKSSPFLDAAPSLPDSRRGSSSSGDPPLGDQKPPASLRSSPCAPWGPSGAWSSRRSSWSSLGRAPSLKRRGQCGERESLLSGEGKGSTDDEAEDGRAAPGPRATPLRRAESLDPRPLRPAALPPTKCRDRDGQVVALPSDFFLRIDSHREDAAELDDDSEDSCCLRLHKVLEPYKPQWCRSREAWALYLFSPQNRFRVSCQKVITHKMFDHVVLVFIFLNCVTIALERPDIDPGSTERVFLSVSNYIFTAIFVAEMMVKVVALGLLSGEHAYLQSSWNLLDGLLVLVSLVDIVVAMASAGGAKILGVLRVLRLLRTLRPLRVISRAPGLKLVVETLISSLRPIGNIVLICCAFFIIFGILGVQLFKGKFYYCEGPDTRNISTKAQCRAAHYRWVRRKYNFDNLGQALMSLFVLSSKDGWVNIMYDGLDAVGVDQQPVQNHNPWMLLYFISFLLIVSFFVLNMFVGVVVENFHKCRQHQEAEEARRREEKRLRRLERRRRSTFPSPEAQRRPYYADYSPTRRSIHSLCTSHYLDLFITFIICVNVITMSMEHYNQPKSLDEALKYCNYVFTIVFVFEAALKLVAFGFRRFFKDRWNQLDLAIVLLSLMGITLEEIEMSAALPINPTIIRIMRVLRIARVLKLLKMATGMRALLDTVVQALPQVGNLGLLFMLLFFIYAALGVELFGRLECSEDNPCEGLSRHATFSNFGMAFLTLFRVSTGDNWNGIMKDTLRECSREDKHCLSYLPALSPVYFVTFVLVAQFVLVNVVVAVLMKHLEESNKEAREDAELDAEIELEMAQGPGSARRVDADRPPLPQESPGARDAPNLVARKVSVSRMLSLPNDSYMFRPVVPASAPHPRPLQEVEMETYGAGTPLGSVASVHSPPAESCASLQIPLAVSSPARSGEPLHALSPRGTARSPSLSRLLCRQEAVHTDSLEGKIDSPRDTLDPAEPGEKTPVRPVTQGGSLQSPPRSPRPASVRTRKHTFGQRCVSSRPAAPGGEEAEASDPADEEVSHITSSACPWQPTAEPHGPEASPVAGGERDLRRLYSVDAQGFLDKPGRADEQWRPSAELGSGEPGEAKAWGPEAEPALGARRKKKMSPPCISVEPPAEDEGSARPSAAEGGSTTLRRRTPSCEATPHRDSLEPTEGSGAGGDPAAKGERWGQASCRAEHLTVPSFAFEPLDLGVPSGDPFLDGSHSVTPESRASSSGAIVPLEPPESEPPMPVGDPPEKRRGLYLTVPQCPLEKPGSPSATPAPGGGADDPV

cells = format: functional
[14] = molecular target: T3, DNA repair and recombination protein RAD54-like (Homo sapiens, UniProt Q92698); assay: inhibitors of human RAD54 branch migration, confirmation, biochemical, fluorescence, cherry-picked samples, dose series (AID 651657); format: functional
T3 sequence (Q92698 whole entry): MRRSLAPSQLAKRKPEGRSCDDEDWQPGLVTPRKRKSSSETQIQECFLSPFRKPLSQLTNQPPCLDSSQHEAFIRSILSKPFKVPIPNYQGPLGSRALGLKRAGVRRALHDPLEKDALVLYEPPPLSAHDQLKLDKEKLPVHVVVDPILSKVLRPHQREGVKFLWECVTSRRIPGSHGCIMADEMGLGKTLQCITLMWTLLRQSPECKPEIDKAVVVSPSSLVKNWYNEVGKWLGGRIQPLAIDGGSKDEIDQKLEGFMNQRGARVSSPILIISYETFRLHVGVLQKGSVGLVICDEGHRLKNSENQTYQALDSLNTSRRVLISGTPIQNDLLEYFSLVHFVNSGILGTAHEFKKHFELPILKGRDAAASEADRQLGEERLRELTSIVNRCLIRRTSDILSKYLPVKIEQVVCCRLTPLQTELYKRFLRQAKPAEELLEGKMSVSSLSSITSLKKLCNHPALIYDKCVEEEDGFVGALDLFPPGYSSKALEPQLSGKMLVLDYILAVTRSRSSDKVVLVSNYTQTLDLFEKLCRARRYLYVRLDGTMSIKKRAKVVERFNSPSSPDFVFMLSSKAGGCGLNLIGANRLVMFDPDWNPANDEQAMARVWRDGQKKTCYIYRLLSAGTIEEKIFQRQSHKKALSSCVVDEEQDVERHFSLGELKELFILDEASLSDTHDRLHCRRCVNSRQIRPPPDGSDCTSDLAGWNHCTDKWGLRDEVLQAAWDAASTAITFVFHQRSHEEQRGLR

[15] = inhibitors of HIV Env-driven cell fusion, dose response, cherry-pick (AID 652057); format: functional, cell-based
[16] = ZM109 Env clade C HIV-1 fusion inhibitors, dose response, HeLa effector, CEM target cells, luciferase, cherry-pick (AID 652058); format: functional, cell-based
[17] = HepG2 cell cytotoxicity, dose response, cytotoxicity control for Shn3 inhibitor project, CellTiter-Glo, cherry-picked (AID 624134); format: functional, cell-based
[18] = control 3'UTR Renilla luciferase suppression, dose response, counter-screen for Shn3 inhibitor project, cell-based, Clone20-Shn3RL, cherry-picked (AID 624133); format: functional
[19] = inhibitors of clade B AD8 Env fusion, dose response, cell-based, cherry-pick (AID 652062); format: functional;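 further: luciferase signal from cell-cell fusion driven by HIV-1 clade B AD8 Env; potency is for inhibitors of fusion seen as a drop in luminescence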
[20] = Shn3 3'UTR reporter inhibitors, dose response, cell-based, Clone20 osteoblasts, firefly luciferase, cherry-picked (AID 624132); format: functional;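 further: firefly luciferase luminescence from reporter carrying the Shn3 3'UTR in osteoblasts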

COc1ccc(-n2ncc3c(NCc4ccccn4)ncnc32)cc1
IC50 (Coagulation factor XII): > 50 µM (inactive)

Cc1cc(C(=O)COc2cccnc2[N+](=O)[O-])c(C)n1Cc1ccco1
IC50 (HEK293 [1]): > 20 µM (inactive) | IC50 (HEK293 [2]): 18.2 µM (active) | EC50 (HEK293 [3]): > 20 µM (inactive) | IC50 (HEK293 [4]): > 20 µM (inactive) | EC50 [5]: 13.1 µM (active) | IC50 (HEK293 [6]): > 20 µM (inactive)

CSC1=NSC2=NC(=O)/C(=C\c3cccs3)C(=N)N12
EC50 [7]: 0.418 µM (active) | CC50 [8]: > 40 µM (active) | CC50 [9]: > 20 µM (active) | EC50 [10]: 8.94 µM (active) | CC50 [11]: > 20 µM (active) | IC50 (Leucine aminopeptidase): 32.2 µM (active) | EC50 (H4): 75 µM (active)

Cc1ccc(CNC(=O)c2ccc(Cn3nc(C)c(Cl)c3C)o2)cc1
AC50 [12]: 8.04 µM (active) | EC50 [13]: 5.77 µM (active)

CC12CCC(c3c(C(=O)N4CCOCC4)nn(-c4ccccc4)c31)C2(C)C (centres undefined)
IC50 (Coagulation factor XII): > 50 µM (inactive)

O=C(NCCCN1CCCC1)c1cc2c(Cl)nc3ccccc3c2s1
IC50 (cells): 30.8 µM (active) | AC50 [14]: 7.11 µM (active) | CC50 [8]: 38.7 µM (active) | CC50 [9]: > 20 µM (active) | CC50 [11]: > 20 µM (active)

Cc1cc(Cl)c(S(=O)(=O)N2CCSCC2)cc1OCC(=O)NC1CCCCC1
IC50 (HEK293 [1]): 3.6 µM (active) | AC50 [15]: 31.6 µM (active) | AC50 [16]: 1.06 µM (active) | AC50 [17]: 4.04 µM (active) | IC50 (HEK293 [2]): 4.29 µM (active) | EC50 (HEK293 [3]): 2.58 µM (active) | AC50 [18]: 5.08 µM (active) | IC50 (HEK293 [4]): > 20 µM (inactive) | AC50 [19]: 4.1 µM (active) | AC50 [20]: 4.11 µM (active) | EC50 [5]: 7.37 µM (active) | IC50 (HEK293 [6]): 9.2 µM (active)
